Source: ChEMBL document CHEMBL1201862, “PubChem BioAssay data set” (2004)
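Dose response: 5 concentrations. Exposure: 48 h. Format: 96-well plates. Endpoint: linear interpolation; highest concentration if not reached. At the GI50, growth is halved.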 The source made the active and inactive calls. Cut-off read from the data, not from the text of the source: active = GI50 up to about 1.1 µM and inactive = higher.

Experiments:
Experiment in all cases: NCI anticancer screen, dose series, 48 h
[1] = tested on: RXF 631
[2] = tested on: IGROV-1
[3] = tested on: KM12
[4] = tested on: M19-MEL
[5] = tested on: NCI-H522
[6] = tested on: UACC-257
[7] = tested on: NCI-H226
[8] = tested on: NCI-H23
[9] = tested on: SF-268
[10] = tested on: NCI-H460
[11] = tested on: HT-29
[12] = tested on: HOP-62
[13] = tested on: TK-10
[14] = tested on: RPMI-8226
[15] = tested on: COLO 205
[16] = tested on: M14
[17] = tested on: XF498
[18] = tested on: UO-31
[19] = tested on: LXFL 529
[20] = tested on: UACC-62
[21] = tested on: U-251
[22] = tested on: RXF 393
[23] = tested on: HCT-116
[24] = tested on: SK-OV-3
[25] = tested on: K562
[26] = tested on: A549
[27] = tested on: OVCAR-8
[28] = tested on: Malme-3M
[29] = tested on: SK-MEL-28
[30] = tested on: OVCAR-5
[31] = tested on: SF-539
[32] = tested on: HOP-92
[33] = tested on: EKVX
[34] = tested on: SW-620
[35] = tested on: A498
[36] = tested on: ACHN
[37] = tested on: SF-295
[38] = tested on: HCC 2998
[39] = tested on: MOLT-4
[40] = tested on: OVCAR-3
[41] = tested on: 786-0
[42] = tested on: SNB-75
[43] = tested on: DLD-1
[44] = tested on: CCRF-CEM
[45] = tested on: HL-60
[46] = tested on: SK-MEL-2
[47] = tested on: DMS-273
[48] = tested on: SK-MEL-5
[49] = tested on: DMS-114
[50] = tested on: LOX IMVI
[51] = tested on: KM-20L2
[52] = tested on: SNB-78
[53] = tested on: SR
[54] = tested on: SNB-19
[55] = tested on: SN12C
[56] = tested on: OVCAR-4
[57] = tested on: CAKI-1
[58] = tested on: HCT-15
[59] = tested on: HOP-18

Measured: GI50

C/C(CC(=O)NCCc1ccccc1)=N\NS(=O)(=O)c1ccc(C)cc1
inactive: [1] > 100 µM | [2] > 100 µM | [3] > 100 µM | [4] > 100 µM | [5] > 100 µM | [6] > 100 µM | [7] > 100 µM | [8] > 100 µM | [9] > 100 µM | [10] > 100 µM | [11] > 100 µM | [12] > 100 µM | [13] > 100 µM | [14] > 100 µM | [15] > 100 µM | [16] > 100 µM | [17] > 100 µM | [18] > 100 µM | [19] > 100 µM | [20] > 100 µM | [21] > 100 µM | [22] > 100 µM | [23] > 100 µM | [24] > 100 µM | [25] > 100 µM | [26] > 100 µM | [27] > 100 µM | [28] > 100 µM | [29] > 100 µM | [30] > 100 µM | [31] > 100 µM | [32] > 100 µM | [33] > 100 µM | [34] > 100 µM | [35] > 100 µM | [36] > 100 µM | [37] > 100 µM | [38] > 100 µM | [39] > 100 µM | [40] > 100 µM | [41] > 100 µM | [42] > 100 µM | [43] > 100 µM | [44] > 100 µM | [45] > 100 µM | [46] > 100 µM | [47] > 100 µM | [48] > 100 µM | [49] > 100 µM | [50] > 100 µM | [51] > 100 µM | [52] > 100 µM

CC(O)c1ccc(C(O)/C(=N\NC(=O)c2ccncc2)c2nc3ccc([N+](=O)[O-])cc3nc2O)cc1 (stereo not drawn)
inactive: [1] > 100 µM | [2] > 100 µM | [3] 49 µM | [4] > 100 µM | [5] 19.8 µM | [53] 75 µM | [6] > 100 µM | [7] > 100 µM | [8] > 100 µM | [9] > 100 µM | [10] > 100 µM | [11] 96.2 µM | [12] > 100 µM | [14] > 100 µM | [54] > 100 µM | [15] > 100 µM | [16] > 100 µM | [17] > 100 µM | [18] > 100 µM | [19] 54.6 µM | [20] 59.2 µM | [21] > 100 µM | [55] > 100 µM | [22] > 100 µM | [23] > 100 µM | [24] > 100 µM | [25] 40.8 µM | [26] > 100 µM | [27] > 100 µM | [28] > 100 µM | [29] > 100 µM | [30] > 100 µM | [31] 37 µM | [32] > 100 µM | [56] > 100 µM | [34] > 100 µM | [36] 42.4 µM | [37] > 100 µM | [38] 75.2 µM | [39] > 100 µM | [40] > 100 µM | [41] > 100 µM | [42] > 100 µM | [43] > 100 µM | [44] > 100 µM | [45] 50.5 µM | [47] 83.8 µM | [57] 52.8 µM | [48] > 100 µM | [49] 16.7 µM | [50] 30 µM | [51] 33.3 µM | [52] > 100 µM
34.8 µM: [58]

COc1ccc(C(=O)C(c2ccc(OC)cc2)C2(O)C(=O)Nc3c2ccc(Cl)c3C)cc1 (stereo not drawn)
> 100 µM: [58]
inactive: [1] 34.9 µM | [2] > 100 µM | [3] > 100 µM | [4] > 100 µM | [5] > 100 µM | [6] 92.9 µM | [7] > 100 µM | [8] > 100 µM | [9] > 100 µM | [10] > 100 µM | [11] > 100 µM | [12] > 100 µM | [13] > 100 µM | [14] > 100 µM | [54] > 100 µM | [15] > 100 µM | [16] > 100 µM | [18] 64.6 µM | [19] > 100 µM | [20] > 100 µM | [21] > 100 µM | [55] > 100 µM | [22] 94.2 µM | [23] > 100 µM | [24] > 100 µM | [25] > 100 µM | [26] > 100 µM | [27] > 100 µM | [28] > 100 µM | [29] > 100 µM | [30] > 100 µM | [56] > 100 µM | [33] > 100 µM | [34] > 100 µM | [35] > 100 µM | [36] > 100 µM | [37] > 100 µM | [38] > 100 µM | [39] > 100 µM | [40] > 100 µM | [41] > 100 µM | [42] 37.3 µM | [44] > 100 µM | [45] > 100 µM | [46] > 100 µM | [48] > 100 µM | [49] > 100 µM | [50] 91.2 µM | [51] > 100 µM | [52] > 100 µM | [59] 58.9 µM
